The conditions of data set [1]: for logp [b]: pH 2.7; for logp [a]: pH 2.3; for logp [c]: pH 7.8.
From the text: (§1) The determination is effected in the acidic range at pH 2.3 using 0.1% aqueous phosphoric acid and acetonitrile as eluents; linear gradient from 10% acetonitrile to 95% acetonitrile. • ^[b] The LC-MS determination in the acidic range is effected at pH 2.7 using 0.1% aqueous formic acid and acetonitrile (contains 0.1% formic acid) as eluents; linear gradient from 10% acetonitrile to 95% acetonitrile. • ^[c] The LC-MS determination in the neutral range is effected at pH 7.8 using 0.001 molar aqueous ammonium hydrogencarbonate solution and acetonitrile as eluents; linear gradient from 10% acetonitrile to 95% acetonitrile.
(§2) The calibration is effected with unbranched alkan-2-ones (having 3 to 16 carbon atoms) with known log P values (determination of the log P values using the retention times by linear interpolation between two successive alkanones).
For another data set, the system named is Phytophthora infestans. Put plainly: whole plant or invertebrate. The class given is in vivo. To be noted: for efficacy: tomato plants, protective spray, 10 ppm active ingredient, evaluation 3 days after inoculation, 0% = control, 100% = no infection; for pest or weed control at 10 ppm: Phytophthora infestans, in Solanum lycopersicum, 72 h, read-out: efficacy.

The test system of another data set is Plasmopara viticola. Put plainly: Plasmopara test (grapevine)/protective. The settings on record: grapevine plants, protective spray, 10 ppm active ingredient, evaluation 6 days after inoculation, 0% = control, 100% = no infection; for pest or weed control at 10 ppm: Plasmopara viticola, 144 h, read-out: efficacy. The class given is in vivo. The method, then:
Plasmopara Test (Grapevine)/Protective
To prepare an appropriate active ingredient preparation, 1 part by weight of active ingredient is mixed with the stated amounts of solvent and emulsifier, and the concentrate is diluted with water to the desired concentration.
To test for protective efficacy, young plants are sprayed with the active ingredient preparation at the stated application rate. After the spray coating has dried on, the plants are inoculated with an aqueous spore suspension of Plasmopara viticola and then remain in an incubation cabinet at about 20° C. and 100% relative atmospheric humidity for 1 day. The plants are then placed in a greenhouse at approx. 21° C. and approx. 90% air humidity for 4 days. The plants are then moistened and placed in an incubation cabinet for 1 day.
Evaluation follows 6 days after the inoculation.

The next data set has as its system Peronospora brassicae. Put plainly: Peronospora test (rapeseed)/seed treatment. The settings on record: 50 g/dt active ingredient, greenhouse, infected leaf area per plant, 0% = control, 100% = no infestation. The class given is in vivo. As to the method:
Peronospora Test (Rapeseed)/Seed Treatment
The test was carried out under greenhouse conditions.
To produce an active ingredient preparation, the active ingredient was dissolved in N-methyl-2-pyrrolidone and the concentrate was diluted with water to the desired concentration. The rapeseeds treated with this solution were sown in 6*6 cm pots which had been filled to a height of 4 cm with a 1:1 mixture of steam-treated soil and sand. Then the plants were cultivated at 10° C.
After 14 days, the plants were inoculated with an aqueous spore suspension of Peronospora brassicae. Subsequently, the plants were placed in a greenhouse at approx. 15° C. and 100% air humidity for 7 days.
The evaluation was effected by assessing the infected leaf area per plant. 0% means an efficiency which corresponds to that of the control, while an efficiency of 100% means that no infestation is observed.

From the text for physchem: as §1, §2

In the case of `CC(=O)c1cccc(C2CC(c3csc(C4CCN(C(=O)Cn5nc(C(F)F)cc5C(F)F)CC4)n3)=NO2)c1` (racemic) [I-8], the “logp [b]” value in data set [1] was 2.78^[b]. In addition, the efficacy with Phytophthora infestans is on record as 97%; in the data set with Plasmopara viticola, 99%.
For `CC#CCOc1cccc(C2CC(c3csc(C4CCN(C(=O)Cn5nc(C(F)F)cc5C(F)F)CC4)n3)=NO2)c1` (racemic) [I-15], in data set [1], the “logp [a]” value was 3.29^[a] and the “logp [c]” value is 3.33^[c];. The compound also had an efficacy in the data set with Phytophthora infestans of 95%. Besides, in the data set with Plasmopara viticola, the efficacy came out at 93%.
Consider `O=C(Cn1nc(C(F)F)cc1C(F)F)N1CCC(c2nc(-c3cc(-c4ccccc4)on3)cs2)CC1` [I-3], for which the “logp [b]” value in data set [1] is 3.66^[b]. In addition, the efficacy in the data set with Phytophthora infestans and with Plasmopara viticola was 100% in each case.
Regarding `O=C(Cn1nc(C(F)F)cc1C(F)F)N1CCC(c2nc(C3=NOC(c4ccccc4)C3)cs2)CC1` (racemic) [I-1], the “logp [b]” value in data set [1] was 3.17^[b];. The “logp [c]” value in data set [1] was 3.11^[c]. The efficacy in the data set with Phytophthora infestans amounted to 95%; in the data set on Plasmopara viticola it was 100%. The efficiency in the data set on Peronospora brassicae was 100%.
On to `C#CCOc1ccc(C2CC(c3csc(C4CCN(C(=O)Cn5nc(C(F)F)cc5C(F)F)CC4)n3)=NO2)cc1` (racemic) [I-22], for which, in data set [1], the “logp [a]” value was 3.14^[a]; and the “logp [c]” value was 3.08^[c]. Also, in the data set with Phytophthora infestans, the efficacy is on record as 98%. Further, the efficacy in the data set with Plasmopara viticola came to 97%.
On to `C#CCOc1ccccc1C1CC(c2csc(C3CCN(C(=O)Cn4nc(C(F)F)cc4C(F)F)CC3)n2)=NO1` (racemic) [I-39], for which, in data set [1], the “logp [a]” value was 3.28^[a] and the “logp [c]” value was 3.23^[c];. The compound further returned an efficacy in the data set with Phytophthora infestans of 99%. In the data set with Plasmopara viticola, the efficacy amounted to 99%.
Consider `O=C(Cn1nc(C(F)F)cc1C(F)F)N1CCC(F)(c2nc(C3=NOC(c4c(F)cccc4F)C3)cs2)CC1` (racemic) [I-6], for which, in data set [1], the “logp [b]” value is 3.43^[b]; and the “logp [c]” value is 3.34^[c]. In the data set on Phytophthora infestans, this compound displayed an efficacy of 94%. Further, the efficacy in the data set with Plasmopara viticola turned out to be 100%. For the same compound, the efficiency with Peronospora brassicae is reported as 100%.
Take `C#CCOc1cccc(C2CC(c3csc(C4CCN(C(=O)Cn5nc(C(F)F)cc5C(F)F)CC4)n3)=NO2)c1` (racemic) [I-21]: in data set [1], the “logp [a]” value is 3.24^[a]. Further, the “logp [c]” value in data set [1] was 3.16^[c];. Also, the values for the efficacy in the data set with Phytophthora infestans and in the data set with Plasmopara viticola were 98% and 100%, respectively.
With `CS(=O)(=O)Nc1ccc(C2CC(c3csc(C4CCN(C(=O)Cn5nc(C(F)F)cc5C(F)F)CC4)n3)=NO2)cc1` (racemic) [I-40], the “logp [b]” value in data set [1] is 2.41^[b]. Besides, the efficacy in the data set with Phytophthora infestans is listed as 95%; with Plasmopara viticola, 91%.
Usually chromatographic logP stands for lipophilicity estimated from chromatographic retention. Read a low chromatographic logP as lower lipophilicity. Take `O=C(Cn1nc(C(F)F)cc1C(F)F)N1CCC(F)(c2nc(C3=NOC(c4ccccc4)C3)cs2)CC1` (centres unmarked) [I-5, 2-[3,5-bis(difluoromethyl)-1H-pyrazol-1-yl]-1-{4-fluoro-4-[4-(5-phenyl-4,5-dihydro-1,2-oxazol-3-yl)-1,3-thiazol-2-yl]piperidin-1-yl}ethanone]: the pest or weed control at 10 ppm in the data set on Phytophthora infestans turned out to be 93%; with Plasmopara viticola, 97%. Besides, the chromatographic logP in the data set “physchem” (pH 2.7, log P (HCOOH)) worked out at 3.41; in the data set “physchem” (pH 2.7, logp [b]) it was 3.41.
Take `O=C(Cn1nc(C(F)F)cc1C(F)F)N1CCC(c2nc(C3=NOC(c4c(F)cccc4F)C3)cs2)CC1` (racemic) [I-2]: in data set [1], the “logp [b]” value was 3.14^[b]. The efficacy in the data set with Phytophthora infestans came out at 99%; with Plasmopara viticola, 100%.
As to `O=Cc1cccc(C2CC(c3csc(C4CCN(C(=O)Cn5nc(C(F)F)cc5C(F)F)CC4)n3)=NO2)c1` (racemic) [I-23], the “logp [b]” value in data set [1] was 2.78^[b]. Besides, the figures for the efficacy in the data set with Phytophthora infestans and in the data set on Plasmopara viticola were 97% and 99%, respectively.
Turning to `O=C(Cn1nc(C(F)F)cc1C(F)F)N1CCC(c2nc(C3=NOC(c4cccc(O)c4)C3)cs2)CC1` (racemic) [I-42], in data set [1], the “logp [a]” value was 2.43^[a] and the “logp [c]” value was 2.45^[c];. The compound further registered an efficacy in the data set with Phytophthora infestans of 94%. Also, in the data set on Plasmopara viticola, the efficacy is given as 97%.
Turning to `CCC#CCOc1ccccc1C1CC(c2csc(C3CCN(C(=O)Cn4nc(C(F)F)cc4C(F)F)CC3)n2)=NO1` (racemic) [I-25], the “logp [b]” value in data set [1] was 3.91^[b]. Also, the efficacy is given as 95% in the data set with Phytophthora infestans and 74% in the data set with Plasmopara viticola.
As for `CC(=O)c1ccccc1C1CC(c2csc(C3CCN(C(=O)Cn4nc(C(F)F)cc4C(F)F)CC3)n2)=NO1` (centres unmarked) [I-7, 1-(4-{4-[5-(2-Acetylphenyl)-4,5-dihydro-1,2-oxazol-3-yl]-1,3-thiazol-2-yl}piperidin-1-yl)-2-[3,5-bis(difluoromethyl)-1H-pyrazol-1-yl]ethanone], the pest or weed control at 10 ppm stood at 97% in the data set on Phytophthora infestans and 100% in the data set on Plasmopara viticola. The same compound came in with a chromatographic logP in “physchem” (pH 2.7, logp [b]) of 3.08. Also, the efficiency in the data set on Peronospora brassicae turned out to be 100%.
